Assays:
C57BL/6J mice = assay: Oral glucose tolerance test (OGTT); assay type: in vivo; settings: 3 nmol/kg s.c., 24 hours before glucose loading
Method: An oral glucose tolerance test (OGTT) was carried out using C57BL/6J mice with a 50% dextrose solution dosed at 5 ml/kg. Testing concentrations of 0.1 nmol/kg, 0.3 nmmol/kg, 3 nmol/kg or 10 nmol/kg were selected depending on the peptide. Each peptide or a vehicle (control group) was subcutaneously administered 24 hours (unless shown otherwise) before glucose loading and the blood glucose was measured at 0, 15, 30, and 60 minutes after glucose dosing.
% inhibition=(1−(AUC cpd−AUC naïve/AUC veh−AUC naïve))×100.

human GLP-1R = target: T1, human GLP-1R (Homo sapiens, UniProt P43220); assay: Human GLP1R agonist activity, intracellular cAMP accumulation; assay type: cell-based; settings: HEK-293T cells overexpressing human GLP-1R, 1 hr, read-out: Human GLP1R cAMP EC50, HEK293T
T1 construct: HEK-293T cells overexpressing full-length human GLP-1R; FLAG (N); host or cells: HEK-293T
T1 sequence (P43220 24-463): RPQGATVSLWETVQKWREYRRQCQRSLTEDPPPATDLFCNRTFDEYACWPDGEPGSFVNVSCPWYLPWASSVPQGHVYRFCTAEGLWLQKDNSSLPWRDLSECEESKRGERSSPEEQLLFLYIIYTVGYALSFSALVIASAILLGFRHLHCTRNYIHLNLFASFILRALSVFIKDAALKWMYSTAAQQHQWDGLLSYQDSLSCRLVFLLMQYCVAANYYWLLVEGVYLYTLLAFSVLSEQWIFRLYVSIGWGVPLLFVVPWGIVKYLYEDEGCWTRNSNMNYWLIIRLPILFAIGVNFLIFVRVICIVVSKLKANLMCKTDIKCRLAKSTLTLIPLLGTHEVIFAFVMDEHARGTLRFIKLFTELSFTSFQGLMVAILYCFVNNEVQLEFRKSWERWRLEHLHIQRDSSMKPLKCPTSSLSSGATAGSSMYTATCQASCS
Method: Cells are cultured per the manufacturer's protocol in DMEM with 10% fetal bovine serum and 1 μg/mL puromycin and stored in frozen aliquots to be used as assay ready cells. On the day of the assay, cells are removed from frozen storage, washed two times in 1× Kreb's Ringer Buffer (Zenbio, Research Triangle Park, N.C.), and re-suspended to a concentration of 4×10^5 cells/mL in 1× Kreb's Ringer Buffer. […] Cells are incubated with test compound for 1 hr at room temperature in the dark, and cAMP accumulation is measured using the Cisbio HiRange cAMP assay kit (Bedford, Mass.) per the manufacturer's protocol. Anti-cAMP antibody and d2-cAMP tracer reagents diluted in lysis/detection buffer are incubated in the dark for 1 hr, and results are measured on an Envision plate reader (Perkin Elmer, Waltham, Mass.). Data is normalized using 1 nm GLP-1 as 100% activity, and DMSO alone as 0% activity.

[1] = Solubility in phosphate buffer pH 7.4
Summary of the method: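 Solubility at pH 7.4 determined by stepwise addition of 200 mM phosphate buffer in 100 μL increments to 3 mg peptide, mixing briefly each time, until no insoluble material remained, then measured by liquid chromatography.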

[2] = pH 7.4, aqueous buffer, pH 7.4 Phosphate Buffer - Solubility, 200 mM Phosphate buffer pH 7.4
[3] = pH 7.4, solubility in phosphate buffer at pH 7.4, 200 mM phosphate buffer pH 7.4

Row | Structure (SMILES) | Oral Glucose Tolerance Test Percent decrease in blood glucose AUC (%) over 60 mins (C57BL/6J mice) | EC50 (human GLP-1R) [nM] | solubility [1, 2] [mg/mL] | solubility [1, 3] [mg/mL] | solubility ([1]; pH 7.4) [mg/mL] | solubility ([1]; pH 7.4, aqueous buffer) [mg/mL]
1 | CC[C@H](C)[C@H](NC(=O)[C@H](CO)NC(=O)[C@H](Cc1ccc(O)cc1)NC(=O)[C@H](CC(=O)O)NC(=O)[C@H](CO)NC(=O)[C@@H](NC(=O)[C@H](Cc1ccccc1)NC(=O)[C@@H](NC(=O)CNC(=O)[C@H](CCC(=O)O)NC(=O)C(C)(C)NC(=O)[C@H](Cc1ccc(O)cc1)NC)[C@@H](C)O)[C@@H](C)CC)C(=O)N[C@@H](C)C(=O)N[C@@H](CCCCNC(=O)CNC(=O)CNC(=O)CNC(=O)CNC(=O)CNC(=O)CCCCCCCCCCCCCCCCC(=O)O)C(=O)N[C@@H](CC(=O)O)C(=O)N[C@@H](CCCNC(=N)N)C(=O)NC(C)(C)C(=O)N[C@@H](C)C(=O)N[C@@H](CCC(N)=O)C(=O)NC(C)(C)C(=O)N[C@@H](CC(=O)O)C(=O)N[C@@H](Cc1ccccc1)C(=O)N[C@H](C(=O)N[C@@H](CC(N)=O)C(=O)N[C@@H](Cc1c[nH]c2ccccc12)C(=O)N[C@@H](CC(C)C)C(=O)N[C@@H](CC(C)C)C(=O)N[C@@H](C)C(=O)N[C@@H](CCC(N)=O)C(=O)N[C@@H](CO)C(=O)N1CCC[C@H]1C(=O)N[C@@H](CO)C(=O)N[C@@H](CO)C(=O)NCC(=O)O)C(C)C [Compound 71] | 68% (3 nmol/kg) | 34.7 | – | – | – | –
2 | CC[C@H](C)[C@H](NC(=O)[C@H](Cc1ccccc1)NC(=O)[C@@H](NC(=O)CNC(=O)[C@H](CCC(=O)O)NC(=O)C(C)(C)NC(=O)[C@H](Cc1ccc(O)cc1)NC)[C@@H](C)O)C(=O)N[C@@H](CO)C(=O)N[C@@H](CC(=O)O)C(=O)N[C@@H](Cc1ccc(O)cc1)C(=O)N[C@@H](CO)C(=O)N[C@H](C(=O)NC(C)(C)C(=O)N[C@@H](CCCCNC(=O)CNC(=O)CNC(=O)CNC(=O)CNC(=O)CNC(=O)CCCCCCCCCCCCCCCCC(=O)O)C(=O)N[C@@H](CC(=O)O)C(=O)N[C@@H](CCCNC(=N)N)C(=O)NC(C)(C)C(=O)N[C@@H](C)C(=O)N[C@@H](CCC(N)=O)C(=O)NC(C)(C)C(=O)N[C@@H](CC(N)=O)C(=O)N[C@@H](Cc1ccccc1)C(=O)N[C@H](C(=O)N[C@@H](CC(N)=O)C(=O)N[C@@H](Cc1c[nH]c2ccccc12)C(=O)N[C@@H](CC(C)C)C(=O)N[C@@H](CC(C)C)C(=O)N[C@@H](C)C(=O)N[C@@H](CCC(N)=O)C(=O)N[C@@H](CO)C(=O)N1CCC[C@H]1C(=O)N[C@@H](CO)C(=O)N[C@@H](CO)C(=O)NCC(=O)N[C@@H](C)C(=O)N1CCC[C@H]1C(=O)N1CCC[C@H]1C(=O)N1CCC[C@H]1C(=O)N[C@@H](CO)C(=O)O)C(C)C)[C@@H](C)CC [Compound 96] | 80% (3 nmol/kg) | – | ≥ 60 | ≥ 15 | – | –
3 | CC[C@H](C)[C@H](NC(=O)[C@H](CO)NC(=O)[C@H](Cc1ccc(O)cc1)NC(=O)[C@H](CC(=O)O)NC(=O)[C@H](CO)NC(=O)[C@@H](NC(=O)[C@H](Cc1ccccc1)NC(=O)[C@@H](NC(=O)CNC(=O)[C@H](CCC(=O)O)NC(=O)C(C)(C)NC(=O)[C@H](Cc1ccc(O)cc1)NC)[C@@H](C)O)[C@@H](C)CC)C(=O)N[C@@H](C)C(=O)N[C@@H](CCCCNC(=O)CNC(=O)CNC(=O)CNC(=O)CNC(=O)CNC(=O)CCCCCCCCCCCCCCCCCCC(=O)O)C(=O)N[C@@H](CC(=O)O)C(=O)N[C@@H](CCCNC(=N)N)C(=O)NC(C)(C)C(=O)N[C@@H](C)C(=O)N[C@@H](CCC(N)=O)C(=O)NC(C)(C)C(=O)N[C@@H](CC(=O)O)C(=O)N[C@@H](Cc1ccccc1)C(=O)N[C@H](C(=O)N[C@@H](CC(N)=O)C(=O)N[C@@H](Cc1c[nH]c2ccccc12)C(=O)N[C@@H](CC(C)C)C(=O)N[C@@H](CC(C)C)C(=O)N[C@@H](C)C(=O)N[C@@H](CCC(N)=O)C(=O)N[C@@H](CO)C(=O)N1CCC[C@H]1C(=O)NCC(=O)O)C(C)C [Compound 111] | 44% (3 nmol/kg) | – | – | – | ≥ 15 | ≥ 30
4 | CC[C@H](C)[C@H](NC(=O)[C@H](CO)NC(=O)[C@H](Cc1ccc(O)cc1)NC(=O)[C@H](CC(=O)O)NC(=O)[C@H](CO)NC(=O)[C@@H](NC(=O)[C@H](Cc1ccccc1)NC(=O)[C@@H](NC(=O)CNC(=O)[C@H](CCC(=O)O)NC(=O)C(C)(C)NC(=O)[C@@H](N)Cc1ccc(O)cc1)[C@@H](C)O)[C@@H](C)CC)C(=O)N[C@@H](C)C(=O)N[C@@H](CCCCNC(=O)CNC(=O)CNC(=O)CNC(=O)CNC(=O)CNC(=O)CCCCCCCCCCCCCCCCC(=O)O)C(=O)N[C@@H](CC(=O)O)C(=O)N[C@@H](CCCNC(=N)N)C(=O)NC(C)(C)C(=O)N[C@@H](C)C(=O)N[C@@H](CCC(N)=O)C(=O)NC(C)(C)C(=O)N[C@@H](CC(N)=O)C(=O)N[C@@H](Cc1ccccc1)C(=O)N[C@H](C(=O)N[C@@H](CC(N)=O)C(=O)N[C@@H](Cc1c[nH]c2ccccc12)C(=O)N[C@@H](CC(C)C)C(=O)N[C@@H](CC(C)C)C(=O)N[C@@H](C)C(=O)N[C@@H](CCC(N)=O)C(=O)N[C@@H](CO)C(=O)N1CCC[C@H]1C(=O)N[C@@H](CO)C(=O)N[C@@H](CO)C(=O)NCC(=O)N[C@@H](C)C(=O)N1CCC[C@H]1C(=O)N1CCC[C@H]1C(=O)N1CCC[C@H]1C(=O)N[C@@H](CO)C(=O)O)C(C)C [Compound 138] | 80% (3 nmol/kg) | – | ≥ 30 | ≥ 15 | – | –
5 | CC[C@H](C)[C@H](NC(=O)[C@H](CO)NC(=O)[C@H](Cc1ccc(O)cc1)NC(=O)[C@H](CC(=O)O)NC(=O)[C@H](CO)NC(=O)[C@@H](NC(=O)[C@H](Cc1ccccc1)NC(=O)[C@@H](NC(=O)CNC(=O)[C@H](CCC(=O)O)NC(=O)C(C)(C)NC(=O)[C@@H](N)Cc1ccc(O)cc1)[C@@H](C)O)[C@@H](C)CC)C(=O)N[C@@H](C)C(=O)N[C@@H](CCCCNC(=O)CNC(=O)CNC(=O)CNC(=O)CNC(=O)CNC(=O)CCCCCCCCCCCCCCCCC(=O)O)C(=O)N[C@@H](CC(=O)O)C(=O)N[C@@H](CCCNC(=N)N)C(=O)NC(C)(C)C(=O)N[C@@H](C)C(=O)N[C@@H](CCC(N)=O)C(=O)NC(C)(C)C(=O)N[C@@H](CC(=O)O)C(=O)N[C@@H](Cc1ccccc1)C(=O)N[C@H](C(=O)N[C@@H](CCC(=O)O)C(=O)N[C@@H](Cc1c[nH]c2ccccc12)C(=O)N[C@@H](CC(C)C)C(=O)N[C@@H](CC(C)C)C(=O)N[C@@H](C)C(=O)N[C@@H](CCC(N)=O)C(=O)N[C@@H](CCCNC(=N)N)C(=O)NCC(=O)O)C(C)C [Compound 144] | 35% (3 nmol/kg) | – | – | – | ≥ 15 | ≥ 30
6 | CC[C@H](C)[C@H](NC(=O)[C@H](Cc1ccccc1)NC(=O)[C@@H](NC(=O)CNC(=O)[C@H](CCC(=O)O)NC(=O)C(C)(C)NC(=O)[C@@H](N)Cc1ccc(O)cc1)[C@@H](C)O)C(=O)N[C@@H](CO)C(=O)N[C@@H](CC(=O)O)C(=O)N[C@@H](Cc1ccc(O)cc1)C(=O)N[C@@H](CO)C(=O)N[C@H](C(=O)NC(C)(C)C(=O)N[C@@H](CCCCNC(=O)CNC(=O)CNC(=O)CNC(=O)CNC(=O)CNC(=O)CCCCCCCCCCCCCCCCC(=O)O)C(=O)N[C@@H](CC(=O)O)C(=O)N[C@@H](CCCNC(=N)N)C(=O)NC(C)(C)C(=O)N[C@@H](C)C(=O)N[C@@H](CCC(N)=O)C(=O)N[C@@H](C)C(=O)N[C@@H](CC(=O)O)C(=O)N[C@@H](Cc1ccccc1)C(=O)N[C@H](C(=O)N[C@@H](CCC(=O)O)C(=O)N[C@@H](Cc1c[nH]c2ccccc12)C(=O)N[C@@H](CC(C)C)C(=O)N[C@@H](CC(C)C)C(=O)N[C@@H](C)C(=O)N[C@@H](CCC(N)=O)C(=O)N[C@@H](CCCNC(=N)N)C(=O)NCC(=O)O)C(C)C)[C@@H](C)CC [Compound 146] | 52% (3 nmol/kg) | – | – | – | ≥ 15 | ≥ 30
7 | CC[C@H](C)[C@H](NC(=O)[C@H](Cc1ccccc1)NC(=O)[C@@H](NC(=O)CNC(=O)[C@H](CCC(=O)O)NC(=O)C(C)(C)NC(=O)[C@@H](N)Cc1ccc(O)cc1)[C@@H](C)O)C(=O)N[C@@H](CO)C(=O)N[C@@H](CC(=O)O)C(=O)N[C@@H](Cc1ccc(O)cc1)C(=O)N[C@@H](CO)C(=O)N[C@H](C(=O)NC(C)(C)C(=O)N[C@@H](CCCCNC(=O)CNC(=O)CNC(=O)CNC(=O)CNC(=O)CNC(=O)CCCCCCCCCCCCCCCCC(=O)O)C(=O)N[C@@H](CC(=O)O)C(=O)N[C@@H](CCCNC(=N)N)C(=O)N[C@@H](C)C(=O)N[C@@H](C)C(=O)N[C@@H](CCC(N)=O)C(=O)N[C@@H](C)C(=O)N[C@@H](CC(=O)O)C(=O)N[C@@H](Cc1ccccc1)C(=O)N[C@H](C(=O)N[C@@H](CCC(=O)O)C(=O)N[C@@H](Cc1c[nH]c2ccccc12)C(=O)N[C@@H](CC(C)C)C(=O)N[C@@H](CC(C)C)C(=O)N[C@@H](C)C(=O)N[C@@H](CCC(N)=O)C(=O)N[C@@H](CCCNC(=N)N)C(=O)NCC(=O)O)C(C)C)[C@@H](C)CC [Compound 148] | 51% (3 nmol/kg) | – | – | – | ≥ 15 | ≥ 30
